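Protocol summary: plate cells (96-well), add compound at 5 concentrations, incubate 48 h, interpolate endpoints linearly. GI50 is the concentration that inhibits growth by half.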 Activity calls are given as the source filed them. Rule as the data show it: active = GI50 up to about 1.1 µM and inactive = higher.
How the values were obtained:
Experiment in all cases: DTP human tumour cell line panel, 48 h
[1] = test system: SK-MEL-2
[2] = test system: UACC-62
[3] = test system: RPMI-8226
[4] = test system: CCRF-CEM
[5] = test system: M14
[6] = test system: HOP-92
[7] = test system: Malme-3M
[8] = test system: K562
[9] = test system: NCI-H23
[10] = test system: SNB-19
[11] = test system: CAKI-1
[12] = test system: HT-29
[13] = test system: OVCAR-5
[14] = test system: MCF7
[15] = test system: OVCAR-8
[16] = test system: HCT-116
[17] = test system: SN12C
[18] = test system: HCT-15
[19] = test system: UACC-257
[20] = test system: SF-539

| SMILES | GI50 [1] | GI50 [2] | GI50 [3] | GI50 [4] | GI50 [5] | GI50 [6] | GI50 [7] | GI50 [8] | GI50 [9] | GI50 [10] | GI50 [11] | GI50 [12] | GI50 [13] | GI50 [14] | GI50 [15] | GI50 [16] | GI50 [17] | GI50 [18] [µM] | GI50 [19] | GI50 [20] |
| --- | --- | --- | --- | --- | --- | --- | --- | --- | --- | --- | --- | --- | --- | --- | --- | --- | --- | --- | --- | --- |
| CCON=C1C(C)(C)C(C)(C)C(C)(C)C1(C)C | > 100 µM (inactive) | > 100 µM (inactive) | > 100 µM (inactive) | > 100 µM (inactive) | > 100 µM (inactive) | > 100 µM (inactive) | > 100 µM (inactive) | > 100 µM (inactive) | > 100 µM (inactive) | > 100 µM (inactive) | > 100 µM (inactive) | > 100 µM (inactive) | > 100 µM (inactive) | > 100 µM (inactive) | > 100 µM (inactive) | > 100 µM (inactive) | > 100 µM (inactive) | > 100 | > 100 µM (inactive) | > 100 µM (inactive) |
| Cc1nc(SCC(=O)Nc2ccc(Cl)cc2)c2sc(=S)n(-c3ccccc3)c2n1 | > 10 µM (inactive) | > 10 µM (inactive) | > 10 µM (inactive) | > 10 µM (inactive) | > 10 µM (inactive) | 5.15 µM (inactive) | > 10 µM (inactive) | 6.41 µM (inactive) | > 10 µM (inactive) | > 10 µM (inactive) | > 10 µM (inactive) | > 10 µM (inactive) | > 10 µM (inactive) | > 10 µM (inactive) | > 10 µM (inactive) | > 10 µM (inactive) | > 10 µM (inactive) | > 10 | > 10 µM (inactive) | > 10 µM (inactive) |
| Cc1c(C(=O)O)sc2nc[nH]c(=O)c12 | > 100 µM (inactive) | > 100 µM (inactive) | > 100 µM (inactive) | – | > 100 µM (inactive) | 67.1 µM (inactive) | > 100 µM (inactive) | > 100 µM (inactive) | > 100 µM (inactive) | > 100 µM (inactive) | 50.2 µM (inactive) | > 100 µM (inactive) | > 100 µM (inactive) | > 100 µM (inactive) | > 100 µM (inactive) | > 100 µM (inactive) | > 100 µM (inactive) | > 100 | > 100 µM (inactive) | > 100 µM (inactive) |
| NNC(=O)CC(=O)Nc1ccccc1Cl | > 100 µM (inactive) | > 100 µM (inactive) | > 100 µM (inactive) | > 100 µM (inactive) | – | > 100 µM (inactive) | > 100 µM (inactive) | > 100 µM (inactive) | > 100 µM (inactive) | > 100 µM (inactive) | > 100 µM (inactive) | > 100 µM (inactive) | > 100 µM (inactive) | > 100 µM (inactive) | > 100 µM (inactive) | > 100 µM (inactive) | > 100 µM (inactive) | > 100 | > 100 µM (inactive) | > 100 µM (inactive) |
| O=C1CSC(c2cccc(Cl)c2)N1c1c(O)c(Cl)cc(Br)c1Cl (stereo not given) | 14.9 µM (inactive) | 22.6 µM (inactive) | 15.9 µM (inactive) | 19.8 µM (inactive) | > 100 µM (inactive) | 15.1 µM (inactive) | > 100 µM (inactive) | 45.2 µM (inactive) | 27.7 µM (inactive) | > 100 µM (inactive) | > 100 µM (inactive) | > 100 µM (inactive) | > 100 µM (inactive) | 15.6 µM (inactive) | – | 15.1 µM (inactive) | 58.5 µM (inactive) | 15 | 22.4 µM (inactive) | 28.8 µM (inactive) |
| CNC(=O)C(C)NC(=O)C(Cc1ccccc1)NC(=O)c1ccccc1 (stereo not given) | > 100 µM (inactive) | > 100 µM (inactive) | > 100 µM (inactive) | > 100 µM (inactive) | > 100 µM (inactive) | > 100 µM (inactive) | > 100 µM (inactive) | > 100 µM (inactive) | > 100 µM (inactive) | > 100 µM (inactive) | > 100 µM (inactive) | > 100 µM (inactive) | > 100 µM (inactive) | > 100 µM (inactive) | > 100 µM (inactive) | > 100 µM (inactive) | > 100 µM (inactive) | > 100 | > 100 µM (inactive) | > 100 µM (inactive) |
| CC[N+](C)(CC)CCN1C(=O)c2ccccc2S1(=O)=O | > 100 µM (inactive) | > 100 µM (inactive) | > 100 µM (inactive) | > 100 µM (inactive) | > 100 µM (inactive) | > 100 µM (inactive) | > 100 µM (inactive) | – | > 100 µM (inactive) | > 100 µM (inactive) | > 100 µM (inactive) | > 100 µM (inactive) | > 100 µM (inactive) | > 100 µM (inactive) | > 100 µM (inactive) | > 100 µM (inactive) | > 100 µM (inactive) | > 100 | > 100 µM (inactive) | > 100 µM (inactive) |
| CCOC(=O)CC[C@H](NC(=O)c1ccc(CNc2nc3cc(C(F)(F)F)ccc3nc2C(=O)OCC)cc1)C(=O)OCC | > 48.2 µM (inactive) | 16.1 µM (inactive) | 5.58 µM (inactive) | > 100 µM (inactive) | > 43.7 µM (inactive) | 13 µM (inactive) | 18.8 µM (inactive) | 70.3 µM (inactive) | 26.1 µM (inactive) | 9.14 µM (inactive) | 14.3 µM (inactive) | > 100 µM (inactive) | 34.7 µM (inactive) | 19 µM (inactive) | 9.42 µM (inactive) | > 56.1 µM (inactive) | > 89.9 µM (inactive) | 76.2 | 42.8 µM (inactive) | 4.59 µM (inactive) |
| CCOC(=O)c1c(-c2ccc(OC)cc2)c(C#N)c(=S)n(C2OC(COC(C)=O)C(OC(C)=O)C(OC(C)=O)C2OC(C)=O)c1-c1ccccc1 (stereo not given) | > 100 µM (inactive) | > 100 µM (inactive) | > 100 µM (inactive) | > 100 µM (inactive) | > 100 µM (inactive) | 17.8 µM (inactive) | > 100 µM (inactive) | > 100 µM (inactive) | > 100 µM (inactive) | > 100 µM (inactive) | > 100 µM (inactive) | > 100 µM (inactive) | > 100 µM (inactive) | > 100 µM (inactive) | – | > 100 µM (inactive) | > 100 µM (inactive) | > 100 | > 100 µM (inactive) | > 100 µM (inactive) |
| COc1cc(C2SCC(=O)N2NC(=O)c2ccc(NC(C)=O)cc2OC)ccc1O (stereo not given) | 22.2 µM (inactive) | > 100 µM (inactive) | 0.883 µM (active) | > 100 µM (inactive) | > 100 µM (inactive) | 29.4 µM (inactive) | > 100 µM (inactive) | > 100 µM (inactive) | 92.9 µM (inactive) | 30.3 µM (inactive) | > 100 µM (inactive) | > 100 µM (inactive) | 23.1 µM (inactive) | 51.5 µM (inactive) | 25.2 µM (inactive) | > 100 µM (inactive) | 36.5 µM (inactive) | > 100 | – | 0.729 µM (active) |
| O=C(NCc1cccc(C(F)(F)F)c1)c1cc2sccc2nc1C(F)(F)F | > 100 µM (inactive) | > 100 µM (inactive) | > 100 µM (inactive) | > 100 µM (inactive) | > 100 µM (inactive) | 50.9 µM (inactive) | > 100 µM (inactive) | > 100 µM (inactive) | > 100 µM (inactive) | 34.6 µM (inactive) | 62.1 µM (inactive) | > 100 µM (inactive) | > 100 µM (inactive) | > 100 µM (inactive) | 88.7 µM (inactive) | > 100 µM (inactive) | 98.9 µM (inactive) | – | > 100 µM (inactive) | 63.7 µM (inactive) |
| Cc1c(CCN2CCOCC2)c(N2CCOCC2)n2c(nc3ccccc32)c1C#N | – | > 10 µM (inactive) | > 10 µM (inactive) | > 10 µM (inactive) | > 10 µM (inactive) | > 10 µM (inactive) | > 10 µM (inactive) | > 10 µM (inactive) | > 10 µM (inactive) | > 10 µM (inactive) | > 10 µM (inactive) | > 10 µM (inactive) | > 10 µM (inactive) | > 10 µM (inactive) | > 10 µM (inactive) | > 10 µM (inactive) | > 10 µM (inactive) | > 10 | > 10 µM (inactive) | > 10 µM (inactive) |
| c1ccc(C/C(=N\Nc2nc3ccccc3[nH]2)c2ccccn2)cc1 | 2.89 µM (inactive) | 0.147 µM (active) | < 0.01 µM (active) | < 0.01 µM (active) | < 0.0288 µM (active) | 0.0206 µM (active) | < 0.0347 µM (active) | 0.0228 µM (active) | 0.019 µM (active) | 0.254 µM (active) | 0.056 µM (active) | < 0.01 µM (active) | – | < 0.01 µM (active) | 0.0235 µM (active) | < 0.01 µM (active) | 0.0295 µM (active) | < 0.01 | < 0.0107 µM (active) | 0.196 µM (active) |
| C=CCc1cc(C=C(C#N)C#N)cc(OC)c1O | > 100 µM (inactive) | 94.2 µM (inactive) | 39.4 µM (inactive) | 46.9 µM (inactive) | > 100 µM (inactive) | 33.5 µM (inactive) | > 100 µM (inactive) | 62.2 µM (inactive) | 79.8 µM (inactive) | > 100 µM (inactive) | > 100 µM (inactive) | > 100 µM (inactive) | > 100 µM (inactive) | 53.1 µM (inactive) | > 100 µM (inactive) | > 100 µM (inactive) | – | 67.6 | > 100 µM (inactive) | > 100 µM (inactive) |
| COc1ccc(-c2cc(=O)c3c(O)c(OC)c(O)cc3o2)cc1O | 3.93 µM (inactive) | 4.04 µM (inactive) | 2.45 µM (inactive) | 3.7 µM (inactive) | 3.4 µM (inactive) | 15 µM (inactive) | 1.3 µM (inactive) | 0.679 µM (active) | 17.7 µM (inactive) | 13.6 µM (inactive) | 13.9 µM (inactive) | 16 µM (inactive) | 32.8 µM (inactive) | 3.79 µM (inactive) | 9.55 µM (inactive) | 3.48 µM (inactive) | 6.68 µM (inactive) | 1.9 | 8.02 µM (inactive) | 2.69 µM (inactive) |

— ChEMBL document CHEMBL1201862, “PubChem BioAssay data set” (2004)
